In experiment [1] the test system is B. Fragilis NCTC 9343. Kind of experiment: MIC/MBC anti-anaerobic screen, strain B. To be noted: Bacteroides fragilis, NCTC9343, 48 h, 37° C., read-out: Minimum Inhibitory Concentration (MIC). Type of experiment: cell-based. The procedure: (§1) The screening panel utilized in this Example consisted of 5 strains of Bacteroides fragilis. All assays were carried out in 96 well microtitre plates. If an isolate was obtained from either a culture collection or clinical source, the isolate was immediately inoculated into Wilkins-Chalgren broth (Oxoid) and incubated at 37° C. in an anaerobic chamber in an atmosphere of 85% nitrogen, 10% carbon dioxide, and 5% hydrogen for 48 hours. At the end of this time, the viable count was about 10^12 organisms/ml broth. A 1 ml aliquot of each culture was placed in an ampoule and quick frozen in an acetone-dry-ice mixture and stored in liquid nitrogen. When an inoculum was utilized in an assay, one of the ampoules was thawed and diluted with fresh broth to yield a suspension having a count of 5×10^5 organisms/ml. 100 ul of the suspension was inoculated into each well of the microtitre plate. 2 mg of the test compound was dissolved on 0.2 ml of a suitable solvent such as dimethylsulphoxide, polyethylene glycol 200 or methanol. […] After addition of the test solution, the final inoculum level is 10^5 cells/ml. The plates were incubated for 48 hours at 37° C. in the anaerobic chamber. The Minimum Inhibitory Concentration (MIC) was read visually. The MIC is defined as the lowest concentration at which there is no detectable growth. The Minimum Bactericidal Concentration (MBC) was determined by taking a 50 ul aliquot from each well and placing it in fresh medium.

In experiment [2] the test system is B. Fragilis NCTC 10581. Nature of the experiment: MIC/MBC anti-anaerobic screen, strain A. Type of experiment: cell-based, Bacteroides fragilis. The following applies: 37° C.; for MIC: Bacteroides fragilis, NCTC10581, 48 h, read-out: Minimum Inhibitory Concentration (MIC). As to the method:
as §1

Experiment [3] concerns B. Fragilis NCTC 9344. Kind of experiment: MIC/MBC anti-anaerobic screen, strain C. Type of experiment: cell-based. To be noted: Bacteroides fragilis, NCTC9344, 48 h, 37° C., read-out: Minimum Inhibitory Concentration (MIC). As to the method:
as §1

Experiment [4] concerns B. Fragilis ATCC 11295. Kind of experiment: MIC/MBC anti-anaerobic screen, strain D. The class given is cell-based. To be noted: Bacteroides fragilis, ATCC11295, 48 h, 37° C., read-out: Minimum Inhibitory Concentration (MIC). As to the method: as §1
The test system of experiment [5] is B. Fragilis WS-1. Nature of the experiment: MIC/MBC anti-anaerobic screen, strain E. The following applies: Bacteroides fragilis, 48 h; for MIC: 37° C., anaerobic, read-out: Minimum Inhibitory Concentration (MIC). Type of experiment: cell-based. The procedure: as §1

Values after ≈ are worked out from the molar mass of the structure shown. Counter-ions that a name gives are not always drawn.

In the case of `CCCCCCCCN1CCN=C1C(Cn1ccnc1)c1ccccc1` (centres unmarked) [Example 19, 4,5-Dihydro-2-[2-(imidazol-1-yl)-1-phenylethyl]-1-n-octylimidazole dihydrochloride], the MIC in experiment [1] worked out at 3.1 mg/L.

For the compound `Clc1ccc(CN2CCN=C2C(Cn2cccn2)c2ccccc2)c(Cl)c1` (centres unmarked) [Example 16, 1-(2,4-Dichlorophenylmethyl)-4,5-dihydro-2-[1-phenyl-2-(pyrazol-1-yl)ethyl]imidazole dihydrochloride], the figures for the MIC in experiment [2] and in experiment [3] were 2.5 mg/L and 3.1 mg/L, respectively.

As for `Clc1ccccc1N1CCN=C1C(Cn1ccnc1)c1ccccc1` (centres unmarked) [Example 1, 1-(2-Chlorophenyl)-4,5-dihydro-2[2-(imidazol-1-yl)-1-phenylethyl)imidazole], in experiment [2], the MIC turned out to be 3.1 mg/L (≈ 8.84 µM).

For `CSc1nccn1CC(C1=NCCN1c1ccc(Cl)cc1Cl)c1ccccc1` (centres unmarked) [Example 22, 1-(2,4-Dichlorophenyl)-4,5-dihydro-2-[1-phenyl-2-(2-thiomethylimidazol-1-yl)ethyl]imidazole dihydrochloride], the MIC in experiment [3], in experiment [4] and in experiment [5] was 3.1 mg/L each time.

Turning to `Clc1ccc(CN2CCN=C2C(Cn2ccnc2)c2ccccc2)c(Cl)c1` (centres unmarked) [Example 15, 1-(2,4-Dichlorophenylmethyl)-4,5-dihydro-2-[2-(imidazol-1-yl)-1-phenylethyl]imidazole], the MIC in experiment [2], in experiment [1], in experiment [3] and in experiment [4] was 3.1 mg/L (≈ 7.76 µM) each time.

With `Clc1ccc(N2CCN=C2C(Cn2ccnc2)c2ccccc2)c(Cl)c1` (centres unmarked) [Example 3, 1-(2,4-Dichlorophenyl)-4,5-dihydro-2-[2-(imidazol-1-yl)-1-phenylethyl]imidazole hydrochloride], the MIC in experiment [2], in experiment [3] and in experiment [4] was 0.8 mg/L in each case. For the same compound, in experiment [5] (99.9% reduction in viable count, read-out: Minimum Bactericidal Concentration (MBC)), the MBC turned out to be 3.1 mg/L.

Consider `CCCCCCCCCCN1CCN=C1C(Cn1ccnc1)c1ccccc1.Cl.Cl` (centres unmarked) [Example 26, 1-n-Decyl-4,5-dihydro-2-[2-(imidazol-1-yl)-1-phenylethyl]imidazole dihydrochloride], for which the MIC in experiment [3], in experiment [4] and in experiment [5] was 3.1 mg/L in each case.

On to `Cc1nccn1CC(C1=NCCN1c1ccc(Cl)cc1Cl)c1ccccc1` (centres unmarked) [Example 21, 1-(2,4-Dichlorophenyl)-4,5-dihydro-2-[2-(2-methylimidazol-1-yl)-1-phenylethyl]imidazole dihydrochloride], for which the figures for the MIC in experiment [3], in experiment [4] and in experiment [5] were 0.8 mg/L, 3.1 mg/L and 0.8 mg/L, respectively.

In the case of `Brc1ccc(N2CCN=C2C(Cn2ccnc2)c2ccccc2)c(Br)c1` (centres unmarked) [Example 2, 1-(2,4-Dibromophenyl)-4,5-dihydro-2-[2-(imidazol-1-yl)-1-phenylethyl]imidazole dihydrochloride], the MIC in experiment [2] turned out to be 0.8 mg/L; in experiment [1] it was 3.1 mg/L; in experiment [5], 0.8 mg/L.

As to `Cc1ncc([N+](=O)[O-])n1CCO` [Metronidazole, reference compound], in experiment [2] (48 hours), the “Minimum Inhibitory Concentration (MIC)” value worked out at 0.8 mg/L.

Take `CC1=NCCN1CC(C1=NCCN1c1ccc(Cl)cc1Cl)c1ccccc1` (centres unmarked) [Example 23, 1-(2,4-Dichlorophenyl)-4,5-dihydro-2-[2-(4,5-dihydro-2-methylimidazol-1-yl)-1-phenylethyl]imidazole dihydrochloride]: the MIC in experiment [5] is 0.8 mg/L.

The values are drawn from patent publication US4732989A, “Substituted alkyl imidazole derivatives” (G. D. Searle & Co., priority 1986, dated 1988).
